Test results as given in the Deep4Chem optical property database.
Where “and” joins values, the source holds several entries; their conditions need not be identical. Equal entries are not always repeated. Blank lines part the entries; values can stand above or below the molecule they belong to.

Assay: solvent given as SMILES

SMILES: COc1ccc(/C=C/c2cc(/C=C/c3ccc(N(c4ccccc4)c4ccccc4)cc3)nc(/C=C/c3ccc(N(C)C)cc3)n2)cc1
emission maximum (in C1CCOC1): 436 nm
emission maximum (in CC#N): 463 nm
emission maximum (in CC(C)=O): 452 nm
emission maximum (in CCCCCCC): 398 nm
emission maximum (in CS(C)=O): 485 nm
emission maximum (in Cc1ccccc1): 411 nm
emission maximum (in ClCCl): 548 nm

SMILES: COc1cc(C(=O)O)cc(OC)c1O
emission maximum (in O): 333 nm

SMILES: COc1ccc(/C=C(\C#N)c2nc(-c3ccc(Cl)cc3)cs2)cc1
emission maximum (in CC#N): 472 nm

SMILES: O=Cc1ccc(C#CC(C#Cc2ccc(C=O)o2)=Cc2ccc(C=C(C#Cc3ccc(C=O)o3)C#Cc3ccc(C=O)o3)cc2)o1
emission maximum (in ClC(Cl)Cl): 518 nm

SMILES: N#C/C(=C\c1ccc(C#N)cc1)c1nc(-c2ccccc2)cs1
emission maximum (in CC#N): 501 nm
emission maximum (in CCO): 500 nm
emission maximum (in CN(C)C=O): 507 nm
emission maximum (in Cc1ccccc1): 472 nm
emission maximum (in ClCCl): 490 nm

SMILES: Cc1ccc2c(c1)C1(c3ccccc3Oc3ccccc31)c1cc(C)ccc1N2c1ccc(-c2ncccn2)cc1
emission maximum (in Cc1ccccc1): 454 nm
emission maximum (in O=P(c1ccccc1)(c1ccccc1)c1ccc2oc3ccc(P(=O)(c4ccccc4)c4ccccc4)cc3c2c1): 458 nm

SMILES: COc1cc(OC)c2cc(-c3ccccc3CC#N)c(=O)oc2c1
emission maximum (in ClC(Cl)Cl): 422 nm

SMILES: CCCCCCCCN1c2ccc(C#Cc3ccc(OC)cc3)cc2Sc2cc(C=O)ccc21
emission maximum (in C1CCOC1): 512 nm
emission maximum (in CC#N): 538 nm
emission maximum (in CCCCCC): 494 nm
emission maximum (in CO): 464 nm
emission maximum (in CS(C)=O): 524 nm
emission maximum (in Cc1ccccc1): 510 nm
emission maximum (in ClC(Cl)Cl): 524 nm

SMILES: COc1ccc(-n2nc(C(=O)c3ccc(Cl)cc3)c(N3CCCC3)n2)cc1
emission maximum (in CC#N): 421 nm

SMILES: CCCCCCCCCCCCn1cccc1/C=C/c1cc(OCCCC)c(/C=C/c2cccn2CCCCCCCCCCCC)cc1OCCCC
emission maximum (in Cc1ccccc1): 472 nm

SMILES: C(#Cc1ccncc1)C(C#Cc1ccncc1)=Cc1ccc(C=C(C#Cc2ccncc2)C#Cc2ccncc2)s1
emission maximum (in ClC(Cl)Cl): 587 nm

Results, then the molecule that gave them:

emission maximum (in C1CCOC1): 395 nm
SMILES: CCC1(CC)c2ccccc2-c2c1c1c(c3c2C(CC)(CC)c2cc(/C=C/c4cccs4)ccc2-3)C(CC)(CC)c2ccccc2-1

emission maximum (in C1CCOC1): 366.9 nm
SMILES: CCCCCCCCCCCCCCCCn1c(-c2cc(-c3nc4ccc(C)cc4n3CCCCCCCCCCCCCCCC)cc(-c3nc4ccc(C)cc4n3CCCCCCCCCCCCCCCC)c2)nc2ccc(C)cc21

emission maximum (in ClC(Cl)Cl): 527 nm
SMILES: CC1=CC(C)=[N+]2C1=C(C1=C(C)C3=C(C)c4c(C)cc(C)n4[B-](F)(F)[N+]3=C1C)c1c(C)cc(C)n1[B-]2(F)F

emission maximum (in C1CCOC1): 462 nm
SMILES: N#Cc1c(N2CCCCC2)cc(-c2ccc3ccccc3c2)c2c1-c1ccccc1C2

emission maximum (in C1CCOC1): 529 nm
SMILES: CCCCCCCCCCCCOc1cc(C(=O)Nc2ccc(-c3ccc4c(c3)C(=O)c3ccccc3-4)cc2)cc(OCCCCCCCCCCCC)c1OCCCCCCCCCCCC

emission maximum (in C1COCCO1): 359 nm
emission maximum (in CC#N): 360 nm
emission maximum (in CC(C)O): 363 nm
emission maximum (in CCO): 364 nm
emission maximum (in CCOC(C)=O): 358 nm
emission maximum (in CN(C)C=O): 361 nm
emission maximum (in CO): 362 nm
emission maximum (in CS(C)=O): 363 nm
emission maximum (in OCC(O)CO): 372 nm
emission maximum (in OCCO): 365 nm
SMILES: Nc1ncnc2c1c(-c1ccc3ccccc3c1)nn2[C@H]1C[C@H](O)[C@@H](CO)O1

emission maximum (in C1CCOC1): 422 nm
SMILES: CCC1(CC)c2ccccc2-c2c1c1c(c3c2C(CC)(CC)c2cc(-c4cccs4)ccc2-3)C(CC)(CC)c2cc(N(c3ccccc3)c3ccccc3)ccc2-1

emission maximum (in C1CCCCC1): 462 nm
emission maximum (in CC1CCCCC1): 462 nm
emission maximum (in CC#N): 501 nm and 506.6 nm
emission maximum (in CCC(C)CC): 461.6 nm
emission maximum (in CCCCCC): 463 nm
emission maximum (in CCO): 505 nm
emission maximum (in CCOC(C)=O): 492.8 nm
SMILES: CCN(CC)c1ccc2cc(-c3nc4ccccc4s3)c(=O)oc2c1

emission maximum (in ClCCl): 438 nm
SMILES: CCCCC(CC)COc1ccc2nc(-c3ccc(-c4cccs4)s3)sc2c1 (centres undefined)

emission maximum (in ClC(Cl)Cl): 624 nm
SMILES: Cc1cc(C)c(C2=C3C=CC(c4ccc5c(ccc6ccccc65)c4)=[N+]3[B-](F)(F)n3c2ccc3-c2ccc3c(ccc4ccccc43)c2)c(C)c1

emission maximum (in ClCCl): 479 nm
SMILES: COc1ccc(C2=CC(c3ccccc3)=C(c3ccccc3)C2)c2ccccc12
